Data set [1] deals with Adult human epidermal keratinocytes (Heka). Briefly: Cytotoxicity against keratinocyte cells (Alamar blue). It is filed as cell-based. The conditions noted are these: for Keratinocyte MIC: 24 hrs treatment. The method, then:
(§1) Adult human epidermal keratinocytes (Heka) isolated from skin (Invitrogen #C-005-5C) were grown and maintained in 15 mL of EPilife medium (Invitrogen #M-EPI-500) supplemented with HKGS growth supplements (Invitrogen #S-001-5) (0.2% v/v bovine pituitary extract (BPE), 5 μg/mL bovine insulin, 0.18 μg/mL hydrocortisone, 5 μg/mL bovine transferrin, 0.2 ng/mL human epidermal growth factor) and 50 μg/mL gentamicin (Sigma #G1397-10ML) in T75 cm2 cell culture flasks (VWR #CABD353136) and incubated at 37° C. in a humidified atmosphere of 5% CO2. Growth medium was refreshed every 2 days until the cells reached 50% confluency and then the medium was refreshed every 24 hours until 80% confluency was obtained.
(§2) At 80% confluency, the cells were counted, diluted and plated into 96 well treated cell culture plates (VWR #29442-054) at a cell density of 10000 cells per well in 90 μL of respective growth medium. All media used for the assay were the same without the addition of antibiotics. The plates were incubated at 37° C. in a humidified atmosphere of 5% CO2 to allow cells to adhere to the plates for 24 hrs before treatment. DMSO was used as the vehicle at a final concentration of 1% in the wells.
(§3) All compounds to be tested were resolublised in sterile DMSO (Sigma #D2438) and a dilution series was prepared for each cell line using the respective cell culture growth medium of which 10 μL were added to the respective assay plate well yielding eight final concentrations ranging from 128 μg/mL to 1 μg/mL per well (final well volume of 100 μL) and incubated at 37° C. in a humidified atmosphere of 5% CO2 for 24 hrs.
(§4) All samples were tested in triplicate. Each plate contained eight un-inoculated positive controls (media+20% DMSO), eight untreated negative controls (Media+20% DMSO+cells). Alamar blue (Invitrogen #Dal1100) was added, 24 hrs after treatment, to each well at 10% of the culture volume (11 μL in 100 μL). Fluorescence was monitored using a BioTek Synergy HT plate reader at 530/25 excitation, 590/35 emission and 35 sensitivity at both time zero and 4 hrs after Alamar blue was added. After subtracting the time zero emission 590 nm measurement from the final reading the inferred percentage of microorganism survival relative to vehicle control wells were calculated and the IC50 was determined.

Experiment in data set [2]: as above
It is filed as cell-based, human. The conditions noted are these: human. The method, then: as §1, §2, §3, §4

The subject of data set [3] is Human foreskin BJ fibroblast cells (ATCC CRL-2522). Briefly: Cytotoxicity against fibroblast cells (Alamar blue). It is filed as cell-based. The conditions noted are these: for Fibroblast MIC: 24 hrs treatment. The method, then:
(§5) Human foreskin BJ fibroblast cells (ATCC CRL-2522) were grown and maintained in 15 mL of Eagle's minimal essential medium (Sigma M5650) supplemented with 10% fetal bovine serum (VWR #CA95043-976) and 100 μU penicillin and 0.1 mg/mL streptomycin (VWR #CA12001-692) in T75 cm2 cell culture flasks (VWR #CABD353136) at 37° C. in a humidified atmosphere of 5% CO2. Culture medium was refreshed every two to three days and cells were not allowed to exceed 80% confluency.
as §2, §3, §4

Experiment in data set [4]: as above
It is filed as cell-based, human. As to conditions: human, 24 hrs treatment, Alamar blue, read-out: Fibroblast IC50. The method, then:
as §5, §2, §3, §4

The test system of data set [5] is Malassezia furfur (ATCC #38593). Briefly: Anti-fungal activity against Malassezia furfur (96 well broth assay, Alamar blue). The conditions noted are these: ATCC38593, 120 h; for IC50: read-out: M. furfur IC50; for MIC: visible growth. It is filed as cell-based. The method, then: The terms Minimum Inhibitory Concentration and Half Maximal Inhibitory Concentration will be understood to have the following meanings. • Minimum Inhibitory Concentration (MIC) The minimum inhibitory concentration (MIC) will be understood to represent the lowest concentration of an anti-microbial that will inhibit the visible growth of a microorganism after overnight incubation. • Half Maximal Inhibitory Concentration (IC50) The half maximal inhibitory concentration (IC50) is a measure of the effectiveness of a substance in inhibiting a spec biological or biochemical function. This quantitative measure indicates how much of a particular drug or other substance (inhibitor) is needed to inhibit a given biological process (or component of a process, i.e. an enzyme, cell, cell receptor or microorganism) by half. IC50 represents the concentration of an active that is required for 50% inhibition in-vitro.
Malassezia furfur (ATCC #38593) was cultured on Media C agar for 7 days at 37° C. Yeast colonies were then harvested into 0.9% saline sterile diH2O and diluted to approximately 1.5×10^6 CFU/mL using a 0.5 MacFarland standard (Fisher #R20410) to create an assay inoculum. Assay inoculum was added to sterile Media C broth to a final concentration of 4.5×10^4 CFU/mL. Assays were carried out in 96 well plates with a final well volume of 100 μL.
Extract fractions and pure compounds were tested in triplicate against each organism. Extract fractions and pure compounds were re-suspended in sterile 20% DMSO.
as §4, with “Each” for “All samples were tested in triplicate. Each”, “DMSO+organism), and one column containing a concentration range of a ketoconazole as a control antibiotic. The assay plate was incubated at 37° C. for 5 days after which growth within the wells were visualised and photographed with a UVP Biospectrum 500 imaging system.” for “DMSO+cells).”, “blue” for “blue (Invitrogen #Dal1100)”, “then added” for “added, 24 hrs after treatment,”, “hours” for “hrs”

Data set [6] is described as follows: Stability of pycnidione formulated in off-the-shelf shampoo composition. It is filed as physicochemical. As to conditions: J&J baby shampoo, after a two month period.
[7] abbreviates: adult human epidermal keratinocytes (Heka), 24 hrs treatment, Alamar blue, read-out: Keratinocyte IC50.
Where [8] appears, read: human foreskin BJ fibroblast cells (ATCC CRL-2522).
The mark [9] stands for this setting: at 8 μg/ml, where inhibition of Malassezia yeasts is retained.

Where two headings read alike, the source gives them in different places.

Turning to `C/C1=C\CC(C)(C)/C=C/C[C@@]2(C)Oc3cc(O)c(=O)cc(C)c3C[C@@H]2C[C@H]1O` [Epolone B, epolone B], in data set [1], the “Keratinocyte MIC” value was >128 µg/mL. The CC50 at 24 h is 50 µg/mL in data set [2] (setting [7]) and > 128 µg/mL in data set [4] (setting [8]). The “Fibroblast MIC” value in data set [3] is >128 µg/mL. Moreover, the 50% inhibitory concentration (IC50) in data set [5] (37° C., 5 days, Alamar blue) stood at 24 µg/mL. For the same molecule, the MIC in data set [5] (37° C., 5 days) was 32 µg/mL.

For `Cc1cc(=O)c(O)cc2c1C[C@H]1CC(C)(C)/C=C/C[C@@]3(C)Oc4cc(O)cc(C)c4C[C@@H]3C[C@H](O)[C@]1(C)O2` [Epolone A, epolone A], the “Keratinocyte MIC” value in data set [1] came out at 32 µg/mL. In addition, the CC50 at 24 h in data set [2] (setting [7]) was 13 µg/mL; in data set [4] (setting [8]), 14 µg/mL. Moreover, in data set [3], the “Fibroblast MIC” value is 32 µg/mL. Also, the concentration for half-maximal inhibition (IC50) in data set [5] (37° C., 5 days, Alamar blue) was 48 µg/mL. Also, the minimal inhibitory concentration (MIC) in data set [5] (37° C., 5 days) is 64 µg/mL.

Consider `Cc1cc(=O)c(O)cc2c1C[C@H]1CC(C)(C)/C=C/C[C@@]3(C)Oc4cc(O)c(=O)cc(C)c4C[C@@H]3C[C@H](O)[C@]1(C)O2` [Pycnidione, pycnidione], for which, in data set [1], the “Keratinocyte MIC” value worked out at 64 µg/mL. For the same molecule, in data set [1] (setting [9]), the “cell line cytotoxicity at lower concentrations (keratinocyte)” value is given as “no cell line cytotoxicity was observed”. Moreover, the CC50 at 24 h in data set [2] (text of b135, read-out: IC50, toxicity to keratinocyte cells) is 15 µg/mL; in data set [4], 11 µg/mL. Further, the “Fibroblast MIC” value in data set [3] worked out at 64 µg/mL. Besides, the “cell line cytotoxicity at lower concentrations (fibroblast)” value in data set [3] (setting [9]) is listed as “no cell line cytotoxicity was observed”. Besides, the “stability of shampoo composition” value in data set [6] is recorded as “remained stable”. Also, the minimal inhibitory concentration (MIC) in data set [5] (37° C., 5 days) was 8 µg/mL. In addition, the IC50 in data set [5] was determined as 6 µg/mL.

For `[O-]n1ccccc1=S.[O-]n1ccccc1=S.[Zn+2]` [zinc pyrithione, zinc salt of 1-hydroxy-2-pyridinethione, reference compound], the “Keratinocyte MIC” value in data set [1] came out at 1 µg/mL.

For the origin of these results see patent US10898421B2, “Anti-dandruff composition comprising pycnidione and epolone” (Croda International PLC, priority 2015, dated 2021).
